From US8981100B2, “Use of novel coumarins as glutathione and thiol labels” (Life Technologies Corporation, priority 2007, dated 2015) come the findings set out here.

Data set [1] has as its system U-2 OS cells. Nature of the data set: SDS-PAGE of labeled U-2 OS cells (+/- BSO) to identify the intracellular target of the dye. The note with it: (+/-) BSO 4 mM overnight, Example 2 40 uM for 60 min. Format: cell-based, human. The procedure:
U-2 OS cells (ATCC HTB-96, human osteosarcoma cells) were plated in 10-cm dishes and incubated overnight in a 37 degree C. cell culture incubator. The cells were then treated with DL-Buthionine-(S,R)-sulfoximine (BSO, 4 mM in growth medium) for overnight (Control=no BSO treatment). The cells are rinsed cells 3 times with 10 mL of DPBS (Invitrogen #14287).
Labeling of cells: Example 2 (40 uM) in DPBS (Invitrogen #14287) was incubated at room temperature for 1 hour. The dye solution was removed and cells rinsed with DPBS (Invitrogen #14287) twice. The cells were scraped off the dish in the presence of DPBS and transferred to a 15 mL conical tube. The cells were pelleted by centrifugation—(5 min. at 5000 rpm, Centrific centrifuge, Fisher Scientific) and resuspended in DPBS, followed by pelleting cells by centrifugation for 5 min at 1000×g. The cells were resuspended in 170 μl DPBS and, to one half, 1 μl Protease Inhibitor (Sigma, P8340) was added, followed by 2 μl 1 M NEM for 30 min and 4 μl 1 M DTT for 30 min.
Processed samples were resolved with SDS-PAGE (NuPAGE 12% Bis-Tris, Invitrogen, NP0342BOX) run in MES buffer (Invitrogen, NP0002). LDS sample buffer (NP0007) and Molecular weight standard (SeeBluePlus2 Prestained Standard LC5925) were obtained from Invitrogen. […]

Data set [2] concerns U-2 OS cells. Nature of the data set: staining intensity of dyes in fixed U-2 OS cells, measured at the nuclear region. The note with it: dye concentration 40 uM, 30 min staining, 3.7% formaldehyde fixation. Format: cell-based, human. The procedure:
(§1) Cells are plated into 96-well microplates and allowed to recover for several hours or overnight. For testing effects of drugs on intracellular thiol/glutathione content, normal growth medium is removed and replaced with normal growth medium containing the test drug. The solution is incubated for several minutes to days. Growth medium is then removed and mixture is rinsed twice with DPBS with glucose/calcium/magnesium (Invitrogen #14287). The compound of Examples 1, 2 or 4 is added in DPBS (Invitrogen #14287), with a concentration up to 100 uM (typically 20 uM). The solution is incubated in a 37 degree C. incubator for 5-30 minutes (typically 30 minutes). Cells can be imaged after dye labeling.
Aldehyde fixation: The dye solution is removed and formaldehyde 3.7% (Sigma F1635, or higher quality) in DPBS (Invitrogen #14190) is added and incubated at room temperature in a fume hood for 30 minutes. […]
(§2) The material is imaged with a fluorescence microscope with filter set for Hoechst 33342 (e.g. Arrayscan VTI (Thermo Fisher Scientific/Cellomics) to acquire the images automatically).
(§3) To quantitate the images of cells stained with the Example compounds, one of the image analysis “BioApplcations” of Arrayscan VTI is used. […] Pixel intensity of the dye in cells are measured in regions (Nucleus, and/or “CytoRing”) defined by the cell identification method based on the nuclear counter stain. […]

Data set [3] concerns U-2 OS cells. Nature of the data set: cellular staining pattern in U-2 OS cells. Format: cell-based, human. The procedure: as §1
(§4) Aldehyde fixation: The dye solution is removed and formaldehyde 3.7% (Sigma F1635, or higher quality) in DPBS (Invitrogen #14190) is added and incubated at room temperature in a fume hood for 30 minutes. The formaldehyde fixative is then removed and cells are rinsed with DPBS (Invitrogen #14190) twice. Cells are kept in PBS.
as §2

A short description of data set [4]: absorption and emission maxima of the dyes. Format: physicochemical.
Data set [5] deals with U-2 OS cells. As to the kind of experiment: effect of quinone toxicants on Example 2 staining in U-2 OS cells. The class given is cell-based, human. As to conditions: toxicant 2 hours, high concentration 33.3 uM in steps of 1/3, Example 2 30 min, formaldehyde fixation, nuclear region. The procedure: as §1, §4
To quantitate the images of cells stained with the Example compounds, one of the image analysis “BioApplcations” of Arrayscan VTI is used. The basic principle of the software is described as follows: Individual cells in an image are identified using the intensity profile of nuclear stain (e.g. TO-PRO-3). The regions derived from the identified nuclear region in individual cells is obtained (“CytoRing”). Pixel intensity of the dye in cells are measured in regions (Nucleus, and/or “CytoRing”) defined by the cell identification method based on the nuclear counter stain. Cell-level data (intensity and other attributes of each cell in all acquired images) are then reported by the computer for further processing and analysis.

In data set [6] the test system is Clone 9 cells (Rat liver cells). As to the kind of experiment: effect of DEM treatment on Clone 9 cells, Example 2 multiplexed with YOYO-1. Format: cell-based. The note with it: DEM 2 hours, at higher concentration of DEM. The procedure:
Cells are plated into 96-well microplates and allowed to recover for several hours or overnight. For testing effects of drugs on intracellular thiol/glutathione content, normal growth medium is removed and replaced with normal growth medium containing the test drug. The solution is incubated for several minutes to days. Growth medium is then removed and mixture is rinsed twice with DPBS with glucose/calcium/magnesium (Invitrogen #14287). The compound of Examples 1, 2 or 4 is added in DPBS (Invitrogen #14287), with a concentration up to 100 uM (typically 20 uM). The solution is incubated in a 37 degree C. incubator for 5-30 minutes (typically 30 minutes). Cells can be imaged after dye labeling. Aldehyde fixation: The dye solution is removed and formaldehyde 3.7% (Sigma F1635, or higher quality) in DPBS (Invitrogen #14190) is added and incubated at room temperature in a fume hood for 30 minutes. The formaldehyde fixative is then removed and cells are rinsed with DPBS (Invitrogen #14190) twice. Cells are kept in PBS. To quantitate the images of cells stained with the Example compounds, one of the image analysis “BioApplcations” of Arrayscan VTI is used. […] Pixel intensity of the dye in cells are measured in regions (Nucleus, and/or “CytoRing”) defined by the cell identification method based on the nuclear counter stain. […]

For data set [7], the system named is U-2 OS cells. As to the kind of experiment: effect of BSO treatment on Example 2 staining in U-2 OS cells. The class given is cell-based, human. The note with it: BSO 4 mM overnight, Example 2 40 uM, varied staining time, 3.7% formaldehyde fixation, nuclear region. The procedure: as §1, §4, §3

Where “and” joins values, the source holds several entries; their conditions need not be identical. Equal values may be shown once. Where a name gives a salt, the structure may show the parent alone.

`O=c1cc(CBr)c2cc3c4c(c2o1)CCCN4CCC3` [Example 2, 2,3,6,7-tetrahydro-9-bromomethyl-1H,5H-quinolizino(9,1-gh)coumarin]: the major intracellular target entry in data set [1] is reported as “Glutathione (GSH)”. In data set [2], the “staining intensity (brightness) relative to comparator dyes” value is reported as “brighter than Example 1”. Also, the cellular staining pattern result in data set [3] was “prominent in nuclear area and diffuse stain in the cytoplasm, with low staining in the cell periphery”. In addition, in data set [4] (in methanol), the absorption maximum is 408 nm and 413 nm; the emission maximum is 497 nm and 515 nm.

In the case of `O=C1C=CC(=O)C=C1` [BQ, 1,4-benzoquione], in data set [5], the “effect on Example 2 staining intensity” value is on record as “decrease of staining at high toxicant concentrations”.

Consider `O=C1C=CC(=O)c2ccccc21` [NQ, 1,4-naphthoquinone], for which the “effect on Example 2 staining intensity” value in data set [5] is “decrease of staining at high toxicant concentrations”.

`COC(=O)/C=C\C(=O)OC` [DEM, Dimethyl maleate]: in data set [6] (Example 2 40 uM 30 min), the “effect on Example 2 intensity” value was “decrease of Example 2 signal (left shift)”. Besides, the “effect on YOYO-1 intensity” value in data set [6] (YOYO-1 1 uM 30 min) is given as “increase of YOYO-1 signal (up shift)”.

In data set [4] (in water), `N[C@H](CCC(=O)N[C@H](CSCc1cc(=O)oc2c3c4c(cc12)CCCN4CCC3)C(=O)NCC(=O)O)C(=O)O` [Example 3, glutathione adduct of 2,3,6,7-tetrahydro-9-bromomethyl-1H,5H-quinolizino(9,1-gh)coumarin] gave an absorption maximum of 408 nm and an emission maximum of 512 nm.

On to `CCCCS(=N)(=O)CCC(N)C(=O)O` (racemic) [BSO, DL-Buthionine-(S,R)-sulfoximine], for which, in data set [7], the “effect on Example 2 staining intensity” value is on record as “reduction of Example 2 staining”.

With `O=c1cc(CCl)c2cc3c4c(c2o1)CCCN4CCC3` [Example 1, 2,3,6,7-tetrahydro-9-chloromethyl-1H,5H-quinolizino(9,1-gh)coumarin], the “staining intensity (brightness) relative to comparator dyes” value in data set [2] is “brighter than CMAC and mBCl”. For the same molecule, the cellular staining pattern entry in data set [3] was “prominent in nuclear area and diffuse stain in the cytoplasm, with low staining in the cell periphery”. In data set [4] (in methanol), the absorption maximum amounted to 405 nm and the emission maximum was determined as 493 nm.

On to `CC1=CC(=O)c2ccccc2C1=O` [MNQ, 2-methyl-1,4-naphthoquinone], for which the “effect on Example 2 staining intensity” value in data set [5] is given as “decrease of staining at high toxicant concentrations”.
